Data from US20190119282A1, “IMIDAZOPYRIDAZINES USEFUL AS INHIBITORS OF THE PAR-2 SIGNALING PATHWAY” (Vertex Pharmaceuticals Incorporated, priority 2013, published 2019).

Key:
[1] = biological target: T1, PAR2 (HT-29 cells, trypsin activation) (Homo sapiens, UniProt P55085); assay: Ca FLIPR TETRA assay, ANTAGONIST mode, stimulation with 3.1 U/mL trypsin; type: cell-based; conditions: HT-29 cells, stimulation with 3.1 U/mL trypsin
T1 construct: host or cells: HT-29 cells
T1 sequence (P55085 26-397): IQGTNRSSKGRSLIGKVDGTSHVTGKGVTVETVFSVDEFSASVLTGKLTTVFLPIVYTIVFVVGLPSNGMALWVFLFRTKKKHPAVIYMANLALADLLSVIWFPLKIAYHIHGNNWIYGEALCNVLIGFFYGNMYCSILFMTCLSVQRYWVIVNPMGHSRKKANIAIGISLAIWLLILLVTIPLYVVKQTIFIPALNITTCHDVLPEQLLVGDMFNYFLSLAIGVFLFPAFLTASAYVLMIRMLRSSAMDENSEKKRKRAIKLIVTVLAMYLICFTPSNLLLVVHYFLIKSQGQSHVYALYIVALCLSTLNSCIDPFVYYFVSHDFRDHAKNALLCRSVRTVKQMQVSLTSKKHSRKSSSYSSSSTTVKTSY
Summary of the method: (§1)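 Cells plated overnight at 37 °C, 5% CO2 in 1% FBS medium; dye loading 45 min at 37 °C then 15 min r.t.; compound added from DMSO/HBSS dilution; first read for intrinsic Ca2+ activation; 30 min r.t. incubation; antagonist read after addition of the fixed activator (8 μM SLIGKV, 1 U/mL thrombin, 3.1 U/mL trypsin or 0.6 μM UTP).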

[2] = tested on: UTP-stimulated Ca2+ response in HT-29 cells; assay: Ca FLIPR TETRA assay, ANTAGONIST mode, stimulation with 0.6 μM UTP; type: cell-based, human; conditions: Homo sapiens, HT-29 cells, stimulation with 0.6 μM UTP
Summary of the method: as §1

[3] = tested on: Thrombin-stimulated Ca2+ response in HT-29 cells; assay: Ca FLIPR TETRA assay, ANTAGONIST mode, stimulation with 1 U/mL Thrombin; type: cell-based, human; conditions: Homo sapiens, HT-29 cells, stimulation with 1 U/mL Thrombin
Summary of the method: as §1

[4] = biological target: T2, PAR2 (HT-29 cells, SLIGKV activation) (Homo sapiens, UniProt P55085); assay: Ca FLIPR TETRA assay, ANTAGONIST mode, stimulation with 8 μM SLIGKV; type: cell-based; conditions: for IC50: HT-29 cells, stimulation with 8 μM SLIGKV
T2 construct: host or cells: HT-29 cells
T2 sequence (P55085 26-397): T1 sequence (P55085 26-397)
Summary of the method: as §1

| IC50 [1] [µM] | IC50 [2] [µM] | IC50 [3] [µM] | IC50 [4] [µM] | IC50 ([1]; antagonist mode) [µM] | IC50 ([2]; antagonist mode) [µM] | IC50 ([3]; antagonist mode) [µM] | IC50 ([4]; antagonist mode) [µM] | SLIGKV % @ concentration ([4]; @ 1.9 (μM)) [% @ 1.9] | Structure (SMILES) |
| --- | --- | --- | --- | --- | --- | --- | --- | --- | --- |
|  |  |  |  | 0.0007 | > 1 | > 1 | 0.0005 |  | CC(C)(C)c1cc(-c2ccc(F)c(Cl)c2)nn2cc(C(=O)N3CCN(C(=O)[C@H]4C[C@@](C)(O)C4)CC3(C)C)nc12 [Compound I-460] |
|  |  |  |  | 0.019 | > 1 | > 1 | 0.0175 |  | CC(C)c1cc(-c2ccc(F)cc2)nn2cc(C(=O)N3CCN(C(=O)c4cccnc4)CC3(C)C)nc12 [Compound I-309] |
|  |  |  |  | 0.0008 | > 1 | > 1 | 0.0006 |  | Cc1nnc(C(=O)N2CCN(C(=O)c3cn4nc(-c5ccc(Cl)c(F)c5)cc(C(C)(C)C)c4n3)C(C)(C)C2)o1 [Compound I-457] |
|  |  |  |  | 0.0048 | > 1 | > 1 | 0.0046 |  | Cc1ccc(-c2cc(C(C)C)c3nc(C(=O)N4CCN(C(=O)c5nc(C)n[nH]5)CC4(C)C)cn3n2)cc1 [Compound I-334] |
|  |  |  |  | 0.0044 | > 1 | > 1 | 0.0113 |  | CC(C)(C)c1cc(-c2ccc(C(F)(F)F)cc2)nn2cc(C(=O)N3CCN(c4c[nH]cn4)C(=O)C3(C)C)nc12 [Compound I-358] |
|  |  |  |  | 0.0015 | > 1 | > 1 | 0.0018 |  | CC(C)(C)c1cc(-c2ccc(C(F)(F)F)cc2)nn2cc(C(=O)N3CCN(C(=O)c4ncccn4)CC3(C)C)nc12 [Compound I-399] |
|  |  |  |  | 0.0028 | > 1 | > 1 | 0.0059 |  | Cc1cc(-c2cc(C(C)(C)C)c3nc(C(=O)N4CCNC(=O)C4(C)C)cn3n2)ccc1F [Compound I-329] |
|  |  |  |  | 0.11 | > 1 | > 1 | 0.0555 |  | CC(F)(F)c1cc(-c2ccc(F)cc2)nn2cc(C(=O)N3CCNC(=O)C3(C)C)nc12 [Compound I-325] |
|  |  |  |  | 0.0028 | 0.98 | 0.63 | 0.002 |  | CC(C)(C)c1cc(-c2ccc(F)cc2)nn2cc(C(=O)N3CCN(C(=O)c4cccnc4)CC3(C)C)nc12 [Compound I-287] |
|  |  |  |  | 0.0071 | > 1 | > 1 | 0.0076 |  | Cc1cc(-c2cc(C(C)(C)C)c3nc(C(=O)N4CCN(c5c[nH]cn5)C(=O)C4(C)C)cn3n2)ccc1F [Compound I-418] |
|  |  |  |  | 0.0015 | 0.46 | > 1 | 0.0012 |  | Cc1nc(C(=O)N2CCN(C(=O)c3cn4nc(-c5ccc(F)c(Br)c5)cc(C(C)(C)C)c4n3)C(C)(C)C2)n[nH]1 [Compound I-504] |
|  |  |  |  | 0.27 | > 1 | > 1 | 0.405 |  | CC(C)c1cc(-c2ccc(F)c(Cl)c2)nn2cc(C(=O)N3CCNCC3(C)C)nc12 [Compound I-497] |
|  |  |  |  | 0.0019 | > 1 | > 1 | 0.0007 |  | Cc1cc(C(=O)N2CCN(C(=O)c3cn4nc(-c5ccc(F)c(Cl)c5)cc(C(C)(C)C)c4n3)C(C)(C)C2)[nH]n1 [Compound I-466] |
|  |  |  |  | 0.0012 | > 1 | > 1 | 0.0008 |  | Cc1nnc(C(=O)N2CCN(C(=O)c3cn4nc(-c5ccc(Cl)cc5)cc(C(C)(C)C)c4n3)C(C)(C)C2)o1 [Compound I-443] |
|  |  |  |  | 0.0022 | > 1 | > 1 | 0.0024 |  | Cc1n[nH]cc1C(=O)N1CCN(C(=O)c2cn3nc(-c4ccc(F)cc4)cc(C(C)(C)C)c3n2)C(C)(C)C1 [Compound I-292] |
|  |  |  |  | 0.0595 | > 1 | > 1 | 0.051 |  | CC(C)c1cc(-c2ccc(F)c(Cl)c2)nn2cc(C(=O)N3CCN(C(=O)[C@H]4C[C@H](C(=O)O)C4)CC3(C)C)nc12 [Compound I-501] |
|  |  |  |  | 0.163 | > 1 | > 1 | 0.107 |  | CC(C)(C)c1cc(C2CCC(F)(F)CC2)nn2cc(C(=O)N3CCN(C(=O)[C@H]4CC[C@H](C(=O)O)CC4)CC3(C)C)nc12 [Compound I-506] |

The remaining lines, values behind:

| Structure (SMILES) | IC50 [1] [µM] | IC50 [2] [µM] | IC50 [3] [µM] | IC50 [4] [µM] | IC50 ([1]; antagonist mode) [µM] | IC50 ([2]; antagonist mode) [µM] | IC50 ([3]; antagonist mode) [µM] | IC50 ([4]; antagonist mode) [µM] | SLIGKV % @ concentration ([4]; @ 1.9 (μM)) [% @ 1.9] |
| --- | --- | --- | --- | --- | --- | --- | --- | --- | --- |
| CC(C)c1cc(-c2ccc(F)cc2)nn2cc(C(=O)N3CCN(C(=O)C(C)(C)N)[C@@H](C)C3)nc12 [Compound I-157] | 14 | 38 | 40 | 5.7 |  |  |  |  |  |
| C[C@H]1CN(C(=O)c2cn3nc(-c4ccc(F)cc4)cc(C(F)(F)F)c3n2)CCN1C(=O)C1CCCCC1 [Compound I-86] | 0.6 | 37 | 35 | 0.078 |  |  |  |  |  |
| Cc1cc(-c2ccc(F)cc2)nn2cc(C(=O)N3CCCC4(COC4)C3)nc12 [Compound I-61] | 19 | 38 | 26 | 13 |  |  |  |  |  |
| C=CC(=O)N1CCN(C(=O)c2cn3nc(-c4ccc(F)cc4)cc(C(C)C)c3n2)C(C)(C)C1 [Compound I-160] | 0.041 | 14 | 7.9 | 0.01 |  |  |  |  |  |
| CC1(C)CN(C(=O)c2ccn[nH]2)CCN1C(=O)c1cn2nc(-c3ccc(F)cc3)cc(C(F)(F)F)c2n1 [Compound I-271] |  |  |  |  | 0.0303 | > 1 | > 1 | 0.0133 |  |
| Cc1ccc(-c2cc(C(C)C)c3nc(C(=O)N4CCN(C(=O)[C@H]5C[C@@](O)(C(F)(F)F)C5)CC4(C)C)cn3n2)cc1 [Compound I-263] |  |  |  |  | 0.0072 | > 1 | 0.22 | 0.0065 |  |
| CC(C)(C)c1cc(-c2ccc(F)cc2)nn2cc(C(=O)N3CCN(C(F)F)C(=O)C3(C)C)nc12 [Compound I-208] |  |  |  |  | 0.103 | > 1 | > 1 | 0.085 |  |
| Cc1cc(-c2ccc(F)cc2)nn2cc(C(=O)N3CCN(C(=O)C(C)(C)O)[C@@H](C)C3)nc12 [Compound I-158] | 26 | 67 | 77 | 9.1 |  |  |  |  |  |
| CC(C)c1cc(-c2ccc(F)cc2)nn2cc(C(=O)N3CCN(C(=O)CC(C)(C)C)[C@@H](C)C3)nc12 [Compound I-130] | 0.006 | 5 | 4.5 | 0.002 |  |  |  |  |  |
| CC(C)c1cc(-c2ccc(F)cc2)nn2cc(C(=O)N3CCN(C(=O)CC4CCOCC4)[C@@H](C)C3)nc12 [Compound I-141] | 0.13 | 24 | 19 | 0.016 |  |  |  |  |  |
| CC(C)c1cc(-c2ccc(F)cc2)nn2cc(C(=O)N3CCN(C(=O)[C@H](O)CC(C)(C)C)C[C@@H]3C)nc12 [Compound I-197] |  |  |  |  | 0.43 | > 1 | > 1 | 0.15 |  |
| CC(C)c1cc(-c2ccc(F)cc2)nn2cc(C(=O)N3CCN(C(=O)[C@H](O)CC(C)(C)C)[C@@H](C)C3)nc12 [Compound I-97] | 0.0006 | > 5 | > 5 | 0.0007 |  |  |  |  |  |
| CC1(C)CN(C(=O)C2(O)CCC2)CCN1C(=O)c1cn2nc(-c3ccc(F)cc3)cc(C(F)(F)F)c2n1 [Compound I-37, [6-(4-Fluorophenyl)-8-(trifluoromethyl)imidazo[1,2-b]pyridazin-2-yl]-[4-(1-hydroxycyclobutanecarbonyl)-2,2-dimethyl-piperazin-1-yl]methanone] | 0.25 | > 50 | > 50 | 0.2 |  |  |  |  |  |
| O=C(c1cn2nc(-c3ccc(F)cc3)cc(C(F)(F)F)c2n1)N1CCN(C(=O)N2CCCCC2)CC1 [Compound I-50] | 27 | > 50 | > 50 |  |  |  |  |  | 44 |
| O=C(c1cn2nc(-c3ccc(F)cc3)cc(C(F)(F)F)c2n1)N1CCCCC1c1ccccn1 (stereo not shown) [Compound I-79] | 1.7 | 3 | 2 | 1.3 |  |  |  |  |  |
| CC(C)c1cc(-c2ccc(F)cc2)nn2cc(C(=O)N3CCN(C(=O)CCC(F)(F)F)[C@@H](C)C3)nc12 [Compound I-138] | 0.052 | > 5 | > 5 | 0.011 |  |  |  |  |  |
| CC(C)c1cc(-c2ccc(F)cc2)nn2cc(C(=O)N3CCN(C(=O)CC(C)(C)O)[C@@H](C)C3)nc12 [Compound I-131] | 0.65 | 32 | 33 | 0.067 |  |  |  |  |  |
| CC1(C)CN(C(=O)c2ccncn2)CCN1C(=O)c1cn2nc(-c3ccc(F)cc3)cc(C(F)(F)F)c2n1 [Compound I-268] |  |  |  |  | 0.104 | > 1 | > 1 | 0.0645 |  |
| CC(C)CCC(=O)N1CCN(C(=O)c2cn3nc(-c4ccc(F)cc4)cc(C(C)C)c3n2)C[C@@H]1C [Compound I-127] | 0.004 | 5.4 | 6.5 | 0.002 |  |  |  |  |  |
| CC(C)C[C@@H](O)C(=O)N1CCN(C(=O)c2cn3nc(-c4ccc(F)cc4)cc(C(C)C)c3n2)C[C@@H]1C [Compound I-105] | 0.0008 | 8.8 | 10 | 0.0004 |  |  |  |  |  |
